Experimental data published in ChEMBL document CHEMBL4251715, “Hepatoprotective Dibenzocyclooctadiene and Tetrahydrobenzocyclooctabenzofuranone Lignans from Kadsura longipedunculata” (2018).

The compounds below were run on HepG2 (assay: Hepatoprotective activity against APAP-induced toxicity in human HepG2 cells assessed as cell survival rate at 10 uM after 48 hrs by MTT assay relative to control). Conditions: HepG2, 48 h, read-out: Survival.
Type: functional
COC1=C(OC)C(=O)[C@]23COc4c5c(cc(c42)[C@H](OC(=O)c2ccccc2)[C@H](C)[C@](C)(O)CC3=C1)OCO5 was tested, and the viability at 10 µM was 52.2%.
For COC1=C(OC)C(=O)[C@]23COc4c5c(cc(c42)[C@H](OC(C)=O)[C@H](C)[C@H](C)CC3=C1)OCO5, the viability at 10 µM was 50.2%.
COC(=O)c1cc(OC)c2c(c1-c1c(CO)cc(OC)c3c1OCO3)OCO2 [BICYCLOL] showed a viability at 10 µM of 49%.
